Data from PubChem BioAssay (NCI).
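Cultured in 96-well plates, cells were exposed to test compound for 48 hours across five concentrations. TGI marks complete inhibition of growth.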

Columns and labels:
Experiment in all cases: NCI anticancer screen, dose series, 48 h
786-0 renal = tested on: 786-0 renal
CAKI-1 renal = tested on: CAKI-1 renal
COLO 205 colon = tested on: COLO 205 colon
DLD-1 colon = tested on: DLD-1 colon
DMS 114 small cell lung = tested on: DMS 114 small cell lung
EKVX NSCLC = tested on: EKVX NSCLC
HCC-2998 colon = tested on: HCC-2998 colon
HCT-116 colon = tested on: HCT-116 colon
HCT-15 colon = tested on: HCT-15 colon
HL-60(TB) leukemia = tested on: HL-60(TB) leukemia
HOP-18 NSCLC = tested on: HOP-18 NSCLC
HOP-62 NSCLC = tested on: HOP-62 NSCLC
HT29 colon = tested on: HT29 colon
IGROV1 ovarian = tested on: IGROV1 ovarian
K-562 leukemia = tested on: K-562 leukemia
KM12 colon = tested on: KM12 colon
M14 melanoma = tested on: M14 melanoma
M19-MEL melanoma = tested on: M19-MEL melanoma
MALME-3M melanoma = tested on: MALME-3M melanoma
MOLT-4 leukemia = tested on: MOLT-4 leukemia
NCI-H23 lung = tested on: NCI-H23 lung
OVCAR-3 ovarian = tested on: OVCAR-3 ovarian
OVCAR-4 ovarian = tested on: OVCAR-4 ovarian
OVCAR-5 ovarian = tested on: OVCAR-5 ovarian
OVCAR-8 ovarian = tested on: OVCAR-8 ovarian
RPMI-8226 leukemia = tested on: RPMI-8226 leukemia
RXF 393 renal = tested on: RXF 393 renal
SF-268 CNS = tested on: SF-268 CNS
SF-295 CNS = tested on: SF-295 CNS
SF-539 CNS = tested on: SF-539 CNS
SK-MEL-2 melanoma = tested on: SK-MEL-2 melanoma
SK-MEL-28 melanoma = tested on: SK-MEL-28 melanoma
SK-MEL-5 melanoma = tested on: SK-MEL-5 melanoma
SK-OV-3 ovarian = tested on: SK-OV-3 ovarian
SNB-19 CNS = tested on: SNB-19 CNS
SNB-78 CNS = tested on: SNB-78 CNS
SR leukemia = tested on: SR leukemia
TK-10 renal = tested on: TK-10 renal
U251 CNS = tested on: U251 CNS
UACC-62 melanoma = tested on: UACC-62 melanoma
UO-31 renal = tested on: UO-31 renal
XF 498 CNS = tested on: XF 498 CNS
A549 NSCLC = tested on: A549 NSCLC
ACHN renal = tested on: ACHN renal
CCRF-CEM leukemia = tested on: CCRF-CEM leukemia
LOX IMVI melanoma = tested on: LOX IMVI melanoma
LXFL 529 NSCLC = tested on: LXFL 529 NSCLC
RXF-631 renal = tested on: RXF-631 renal
SN12C renal = tested on: SN12C renal
SW-620 colon = tested on: SW-620 colon
UACC-257 melanoma = tested on: UACC-257 melanoma
A498 renal = tested on: A498 renal
DMS 273 small cell lung = tested on: DMS 273 small cell lung
HOP-92 NSCLC = tested on: HOP-92 NSCLC
KM20L2 colon = tested on: KM20L2 colon
NCI-H226 lung = tested on: NCI-H226 lung
NCI-H460 lung = tested on: NCI-H460 lung
NCI-H522 lung = tested on: NCI-H522 lung
SNB-75 CNS = tested on: SNB-75 CNS

## O=C(O)CCCCCCC[C@H]1S[C@H]1CCCCCCO
786-0 renal
  TGI: > 100 µM
CAKI-1 renal
  TGI: > 100 µM
COLO 205 colon
  TGI: > 100 µM
DLD-1 colon
  TGI: > 100 µM
DMS 114 small cell lung
  TGI: > 100 µM
EKVX NSCLC
  TGI: > 100 µM
HCC-2998 colon
  TGI: > 100 µM
HCT-116 colon
  TGI: > 100 µM
HCT-15 colon
  TGI: > 100 µM
HL-60(TB) leukemia
  TGI: > 100 µM
HOP-18 NSCLC
  TGI: > 100 µM
HOP-62 NSCLC
  TGI: > 100 µM
HT29 colon
  TGI: > 100 µM
IGROV1 ovarian
  TGI: > 100 µM
K-562 leukemia
  TGI: > 100 µM
KM12 colon
  TGI: > 100 µM
M14 melanoma
  TGI: > 100 µM
M19-MEL melanoma
  TGI: > 100 µM
MALME-3M melanoma
  TGI: > 100 µM
MOLT-4 leukemia
  TGI: > 100 µM
NCI-H23 lung
  TGI: > 100 µM
OVCAR-3 ovarian
  TGI: > 100 µM
OVCAR-4 ovarian
  TGI: > 100 µM
OVCAR-5 ovarian
  TGI: > 100 µM
OVCAR-8 ovarian
  TGI: > 100 µM
RPMI-8226 leukemia
  TGI: > 100 µM
RXF 393 renal
  TGI: > 100 µM
SF-268 CNS
  TGI: > 100 µM
SF-295 CNS
  TGI: > 100 µM
SF-539 CNS
  TGI: > 100 µM
SK-MEL-2 melanoma
  TGI: > 100 µM
SK-MEL-28 melanoma
  TGI: > 100 µM
SK-MEL-5 melanoma
  TGI: > 100 µM
SK-OV-3 ovarian
  TGI: > 100 µM
SNB-19 CNS
  TGI: > 100 µM
SNB-78 CNS
  TGI: > 100 µM
SR leukemia
  TGI: > 100 µM
TK-10 renal
  TGI: > 100 µM
U251 CNS
  TGI: > 100 µM
UACC-62 melanoma
  TGI: > 100 µM
UO-31 renal
  TGI: > 100 µM
XF 498 CNS
  TGI: > 100 µM

## COc1cc([C@@H]2c3cc4c(cc3C(N)C3COC(=O)[C@@H]32)OCO4)cc(OC)c1O (stereo not given in full)
786-0 renal
  TGI: > 100 µM
A549 NSCLC
  TGI: > 100 µM
ACHN renal
  TGI: > 100 µM
CCRF-CEM leukemia
  TGI: > 100 µM
COLO 205 colon
  TGI: 0.362 µM
DLD-1 colon
  TGI: > 100 µM
HCT-116 colon
  TGI: > 100 µM
HCT-15 colon
  TGI: > 100 µM
HL-60(TB) leukemia
  TGI: 0.555 µM
HOP-18 NSCLC
  TGI: > 100 µM
HOP-62 NSCLC
  TGI: > 100 µM
IGROV1 ovarian
  TGI: > 100 µM
K-562 leukemia
  TGI: > 100 µM
LOX IMVI melanoma
  TGI: > 100 µM
LXFL 529 NSCLC
  TGI: > 100 µM
M19-MEL melanoma
  TGI: > 100 µM
MOLT-4 leukemia
  TGI: 1.17 µM
NCI-H23 lung
  TGI: > 100 µM
OVCAR-4 ovarian
  TGI: > 100 µM
RPMI-8226 leukemia
  TGI: > 100 µM
RXF-631 renal
  TGI: 0.606 µM
SF-268 CNS
  TGI: > 100 µM
SF-295 CNS
  TGI: > 100 µM
SF-539 CNS
  TGI: 0.586 µM
SN12C renal
  TGI: > 100 µM
SNB-19 CNS
  TGI: 0.646 µM
SR leukemia
  TGI: 0.428 µM
SW-620 colon
  TGI: > 100 µM
TK-10 renal
  TGI: > 100 µM
UACC-257 melanoma
  TGI: > 100 µM
UO-31 renal
  TGI: > 100 µM

## O=C(/N=C/c1c(O)c2ccccc2oc1=O)Nc1ccccc1
786-0 renal
  TGI: > 100 µM
A498 renal
  TGI: > 100 µM
A549 NSCLC
  TGI: > 100 µM
ACHN renal
  TGI: > 100 µM
CAKI-1 renal
  TGI: 55.3 µM
CCRF-CEM leukemia
  TGI: > 100 µM
COLO 205 colon
  TGI: > 100 µM
DLD-1 colon
  TGI: > 100 µM
DMS 114 small cell lung
  TGI: > 100 µM
DMS 273 small cell lung
  TGI: > 100 µM
EKVX NSCLC
  TGI: > 100 µM
HCC-2998 colon
  TGI: > 100 µM
HCT-116 colon
  TGI: > 100 µM
HCT-15 colon
  TGI: > 100 µM
HL-60(TB) leukemia
  TGI: > 100 µM
HOP-18 NSCLC
  TGI: > 100 µM
HOP-92 NSCLC
  TGI: > 100 µM
HT29 colon
  TGI: > 100 µM
IGROV1 ovarian
  TGI: > 100 µM
K-562 leukemia
  TGI: > 100 µM
KM12 colon
  TGI: > 100 µM
KM20L2 colon
  TGI: > 100 µM
LOX IMVI melanoma
  TGI: > 100 µM
LXFL 529 NSCLC
  TGI: > 100 µM
M14 melanoma
  TGI: > 100 µM
M19-MEL melanoma
  TGI: > 100 µM
MALME-3M melanoma
  TGI: 94 µM
MOLT-4 leukemia
  TGI: > 100 µM
NCI-H226 lung
  TGI: > 100 µM
NCI-H23 lung
  TGI: > 100 µM
NCI-H460 lung
  TGI: > 100 µM
NCI-H522 lung
  TGI: > 100 µM
OVCAR-3 ovarian
  TGI: > 100 µM
OVCAR-4 ovarian
  TGI: > 100 µM
OVCAR-5 ovarian
  TGI: > 100 µM
OVCAR-8 ovarian
  TGI: > 100 µM
RPMI-8226 leukemia
  TGI: > 100 µM
RXF 393 renal
  TGI: 91.8 µM
SF-268 CNS
  TGI: > 100 µM
SF-295 CNS
  TGI: > 100 µM
SF-539 CNS
  TGI: > 100 µM
SK-MEL-2 melanoma
  TGI: 80.4 µM
SK-MEL-28 melanoma
  TGI: > 100 µM
SK-MEL-5 melanoma
  TGI: > 100 µM
SK-OV-3 ovarian
  TGI: > 100 µM
SN12C renal
  TGI: > 100 µM
SNB-19 CNS
  TGI: > 100 µM
SNB-75 CNS
  TGI: 83.5 µM
SNB-78 CNS
  TGI: > 100 µM
SR leukemia
  TGI: > 100 µM
SW-620 colon
  TGI: > 100 µM
TK-10 renal
  TGI: > 100 µM
U251 CNS
  TGI: > 100 µM
UACC-257 melanoma
  TGI: > 100 µM
UACC-62 melanoma
  TGI: > 100 µM
UO-31 renal
  TGI: > 100 µM
XF 498 CNS
  TGI: > 100 µM
